Laboratory results as given in the NIST ThermoML archive (doi:10.1016/j.fluid.2012.11.029).
Numbers after ± are expanded uncertainties.

Tests used:
[1] = Molar enthalpy of transition or fusion; details: Crystal; DSC
[2] = Crystal; DTA

Row | Structure (SMILES) | Molar enthalpy of transition or fusion [1] [kcal/mol] | Normal melting temperature [2] [°C]
1 | NC(=O)c1cnccn1 [pyrazinecarboxamide] | 6.72 ± 0.191 | 188.27 ± 1.1
2 | NNC(=O)c1ccncc1 [isonicotinic acid hydrazide] | 6.67 ± 0.191 | 172.69 ± 1.1
3 | CCCCCCCCCC[N+](C)(C)CCCCCCCCCC.O=[N+]([O-])[O-] [Didecyldimethylammonium nitrate] | 2.33 ± 0.0789 | 31.7 ± 1.1
